These results are taken from patent US10202658B2, “Methods for determining hypersusceptibility of HIV-1 to non-nucleoside reverse transcriptase inhibitors” (Monogram Biosciences, Inc., priority 2005, dated 2019).

Holding throughout (type): cell-based
Holding throughout (settings): share of samples designated hypersusceptible

One assay deals with HIV-1, RT mutations: 65R. Briefly: PhenoSense resistance test vector assay, clinical isolates with 65R. As to the method: (§1) In preferred embodiments, the phenotypic analysis of NNRTI hypersusceptibility is performed using PHENOSENSE™ (ViroLogic Inc., South San Francisco, Calif.). See Petropoulos et al., 2000, Antimicrob. Agents Chemother. 44:920-928; U.S. Pat. Nos. 5,837,464 and 6,242,187. PHENOSENSE™ is a phenotypic assay that achieves the benefits of phenotypic testing and overcomes the drawbacks of previous assays. Because the assay has been automated, PHENOSENSE™ provides high throughput methods under controlled conditions for determining NNRTI resistance, susceptibility, or hypersusceptibility of a large number of individual viral isolates.
(§2) The assay can be performed by first co-transfecting host cells with RTV DNA and a plasmid that expresses the envelope proteins of another retrovirus, for example, amphotropic murine leukemia virus (MLV). Following transfection, viral particles can be harvested from the cell culture and used to infect fresh target cells in the presence of varying amounts of anti-viral drug(s). The completion of a single round of viral replication in the fresh target cells can be detected by the means for detecting replication contained in the vector. […] The susceptibility of an HIV, or population of HIV, can be determined by measuring the concentration of antiviral drug at which the luciferase activity detected is half-maximal. […]

In assay [1] the test system is HIV-1, RT mutations: 3 NAMs. The assay can be described thus: PhenoSense resistance test vector assay, clinical isolates with 3 NAMs. The method, then:
as §1
(§3) The assay can be performed by first co-transfecting host cells with RTV DNA and a plasmid that expresses the envelope proteins of another retrovirus, for example, amphotropic murine leukemia virus (MLV). Following transfection, viral particles can be harvested from the cell culture and used to infect fresh target cells in the presence of varying amounts of anti-viral drug(s). The completion of a single round of viral replication in the fresh target cells can be detected by the means for detecting replication contained in the vector. In a preferred embodiment, the completion of a single round of viral replication results in the production of luciferase. By monitoring the amount of, e.g., luciferase activity in the presence of the varying amounts of antiviral drug(s), a resistance curve can be constructed by plotting luciferase activity versus drug concentration. The susceptibility of an HIV, or population of HIV, can be determined by measuring the concentration of antiviral drug at which the luciferase activity detected is half-maximal. This number, the IC50, provides a standard and convenient measure of drug resistance.
(§4) Patient-derived segment(s) corresponding to the HIV protease and reverse transcriptase coding regions were amplified by the reverse transcription-polymerase chain reaction method (RT-PCR) using viral RNA isolated from viral particles present in the plasma or serum of HIV-infected individuals as follows. […]

Assay [2] has as its system HIV-1, RT mutations: 1 NAM. Briefly: PhenoSense resistance test vector assay, clinical isolates with 1 NAM. The method, then:
as §1, §3, §4

Assay [3] deals with HIV-1, RT mutations: None. The assay can be described thus: PhenoSense resistance test vector assay, clinical isolates without NRTI, NNRTI or PI mutations (WT reference group). The method, then:
as §1, §3, §4

The subject of assay [4] is HIV-1, RT mutations: 65R and 184V. The assay can be described thus: PhenoSense resistance test vector assay, clinical isolates with 65R and 184V. The method, then: as §1, §2
The test system of assay [5] is HIV-1, RT mutations: K70R and 2 TAMs. The assay can be described thus: PhenoSense resistance test vector assay, clinical isolates with K70R and 2 TAMs. The method, then:
as §1, §3, §4

Assay [6] deals with HIV-1, RT mutations: T215Y and 2 TAMs and V118 wt. Briefly: PhenoSense resistance test vector assay, clinical isolates with T215Y and 2 TAMs and V118 wt. The method, then:
as §1, §3, §4

Assay [7] deals with HIV-1, RT mutations: T215Y and 2 TAMs. Briefly: PhenoSense resistance test vector assay, clinical isolates with T215Y and 2 TAMs. As to the method: as §1, §2
Assay [8] has as its system HIV-1, RT mutations: 184V. The assay can be described thus: PhenoSense resistance test vector assay, clinical isolates with 184V. The method, then:
as §1, §3, §4

The subject of the next assay is HIV-1, RT mutations: 69X. Briefly: PhenoSense resistance test vector assay, clinical isolates with 69X. As to the method: as §1, §3, §4

In the case of `CC(C)Nc1cccnc1N1CCN(C(=O)c2cc3cc(NS(C)(=O)=O)ccc3[nH]2)CC1` [DLV, delavirdine], the “% IC50 0.4 fold < WT” value in the assay on HIV-1, RT mutations: 65R was determined as 44.4%; in assay [1] it was 12.8%; in [2] it was 13.2%; in assay [3] it was 4.9%; in assay [4] it was 42.7%; in assay [5], 15.7%. For the same molecule, the “% IC50 0.4 fold < WT” value is 83.9% in assay [6]; 71.8% in assay [7]; 12.3% in assay [8]; 13.2% in the assay with HIV-1, RT mutations: 69X.

Consider `Cc1ccnc2c1NC(=O)c1cccnc1N2C1CC1` [NVP, nevirapine], for which the “% IC50 0.4 fold < WT” value was determined as 55.6% in the assay with HIV-1, RT mutations: 65R; 17.9% in assay [1]; 18.0% in [2]; 8.1% in [3]; 50.7% in assay [4]; 36.9% in assay [5]. Moreover, the “% IC50 0.4 fold < WT” value turned out to be 37.5% in [6]; 31.3% in [7]; 16.3% in [8]; 20.8% in the assay on HIV-1, RT mutations: 69X.

Consider `O=C1Nc2ccc(Cl)cc2[C@@](C#CC2CC2)(C(F)(F)F)O1` [EFV, efavirenz], for which the “% IC50 0.4 fold < WT” value was found to be 28.2% in assay [1]; 17.8% in assay [2]; 4.2% in [3]; 31.0% in [5]; 78.1% in [6]; 16.9% in [8]. The “% IC50 0.4 fold < WT” value in the assay on HIV-1, RT mutations: 69X worked out at 19.8%.
